Measurements reported in patent publication US20060135587A1, “Method and compounds for promoting healing and reducing inflammation” (priority 2002, published 2006).
Where two headings read alike, the source gives them in different places.

Key:
[1] = tested on: acute Con A-induced inflammation; assay: Acute Con A-induced inflammation (paw oedema) in mice; assay type: in vivo; details: Table 3, male CBA mice
Description: Saline solution was similarly administered to the control animals. There were 10 mice in each group. After one hour, con A at a dose of 100 mkg/20 g of body weight was administered by sub-plantar injection into the plantar aponeurosis of the left paws of mice of both the experimental and control groups. The same amount of saline splution was injected into the contralateral paws. After one hour, the mice were killed and the experimental and control paws were weighed to assess the reaction index of the inflammation in the ankle-joint (Liubimov et al, 1999).
The anti-inflammatory effect of Compound 2 and Compound 7 was compared in male mice weighing 18-22 g, using the model described in Example 9. The ED50, i.e. the dose reducing paw ooedema by 50% one hour after injection of Concanavalin A, was calculated.

[2] = tested on: liver after partial hepatectomy; assay: Morphological study of the liver after partial hepatectomy; assay type: in vivo, rats
Description: Morphological methods are highly informative in the assessment of repair processes. Histological tests of the liver after partial hepatectomy were performed using generally accepted methods. Microscopic sections were stained with hematoxylin and eosin using Van Gieson's methodology. Liver tests after partial hepatectomy were performed on 8 groups of animals, totalling 37 rats. All animals were examined one week after hepatectomy.

in vivo = details: male, mouse, ip
Description: (§3) The acute toxicity of 1,3-dialkyl-4,5-bis (N-methylcarbamoyl)imidazolium salts was assessed following intraperitoneal injection into 200 white male mice weighing 18 to 20 g. Dead animals were counted daily after the administration of the test substance.

[3] = tested on: regeneration of liver after partial hepatectomy; assay: Liver regeneration after partial hepatectomy in rats; assay type: in vivo; details: for Catalase E activity / DNA content (in mg/g of tissue) / Protein content / RNA content (mg/g of tissue) / SOD activity: 0.2 mM/kg; for Level of recovery: 0.2 mM/kg intraperitoneally, 7 days, hepatectomy alone = 100
Description: Partial hepatectomy was performed using the conventional method (Higgins and Anderson, 1931) by removing the left lateral and central lobes of the liver from 80 male white rats, weighing 180-200 g.
Compound 2, Compound 4, Compound 5 or Compound 6 was administered to the experimental groups intraperitoneally in equimolar doses of 0.1 mM/kg and 0.2 mM/kg. These optimal doses were determined in preliminary experiments. The control group received intraperitoneal injections of saline solution. The compounds were administered on the day after the operation and then one injection was given daily over the course of 7 days, since maximum growth of the liver mass in rats is observed in the first 7 days after partial hepatectomy (Solopaev, 1980).
The effectiveness of the compounds was compared to that of a combination of non-steroid anabolic regeneration stimulators which are used in the treatment of liver pathology, namely Riboxin and potassium orotate at a dose of 0.2 mM/kg each (Rychnev and Frolov, 1984).
For quantitative evaluation of the regeneration process in the liver the coefficient of regeneration completion as determined by the formula below was used: [formula] where
Stimulation of the regeneration of tissue after hepatectomy in response to different medicinal preparations is associated with an increase in the synthesis of nucleic acids, as indicated by the increase in the content of RNA and DNA in the regenerated tissue. Quantitative analysis of DNA and RNA was performed by centrifugation. […] The enzymic component of anti-oxidant protection was also assessed on the basis of the activity of catalase and superoxidedismutase (SOD).
5 ml of […] of HCIO4 solution were added to the sample (100 mg). In order to ensure complete sedimentation of the acid-insoluble fraction, the beakers were put in ice for 15 minutes. Then they were centrifuged for 10 minutes at 5000 revolutions per minute. The sediment was washed twice with 0.2 M HCIO4. After the final centrifugation, the walls of the beaker were carefully dried with gauze and filter paper. The sediment was ground down with a glass pestle, suspended in 1 ml of water and then 1 ml of 0.6 M KON solution was added at room temperature. Hydrolysis was performed over the course of 1 hour at 37° C., then the beakers were put in ice to stop the hydrolysis process. 4 ml of the 0.6 M solution were added to each beaker and the beakers were left in ice for another 15 minutes, then centrifuged for 15 minutes at 5000 revolutions per minute. The supernatant was used to determine the RNA by UV absorption at 260 nm and 290 nm compared to the control sample containing 0.4M of HCIO4). The amount of RNA in μg per 1 ml of the supernatant was calculated using the following formula: [formula] where C=is the RNA concentration (μg/ml)
DNA analysis was carried out on the sediment remaining after the alkaline hydrolysis used to determine RNA. 0.5 M of HCIO4 (5 ml per sample) was poured into the dried beaker containing the sediment. Hydrolysis was performed in a boiling water bath for 20 minutes. The amount of DNA in μg per 1 ml of the hydrolysate was calculated using the following formula: [formula] where C=is the DNA concentration (μg/ml). Catalase Activity
Catalase activity was determined using the permanganate method. The optimal amount of the substrate (3 ml of 1% H2O2) and 1 ml of the enzyme were added to 10 ml of phosphate buffer, pH 7.8. After 10 minutes the reaction was stopped by adding 1.5 ml of H2SO4 (50%). The remaining hydrogen peroxide was filtered with 0.1M of KMnO4 solution. Catalase activity was calculated on the basis that 1 ml of 0.1M of KMnO4 solution corresponds to […] of H2O2.
SOD activity was determined using the dianisidine method, which is based on the fact that under ultraviolet irradiation Riboflavin (Rb) is converted to an excited (ionised) state and therefore becomes able to attack reduced dianisidine (DH2). […]

[4] = oral dose used for the comparative medication; cited from earlier work
[5] = tested on: carrageenin-induced inflammation; assay: Carrageenin-induced inflammation in intact and adrenalectomized rats; assay type: in vivo
Description: An acute inflammatory oedema was induced in intact and adrenalectomized male rats weighing 180-200 g by sub-plantar injection of 0.1 ml of 1% carrageenin solution into the left paw (Winter et al., 1962). The same volume of saline solution was injected into the contralateral paw. […] There were 10 rats in each group.
The degree of carrageenin-induced inflammation of the ankle joints was assessed at 3 hours after the induction of the inflammation, on the basis of the change in weight of the experimental and control paws (reaction index).

experimental granuloma = assay: Cotton-wool granuloma (chronic proliferative inflammation) in rats; assay type: in vivo
Description: We investigated the ability of compound (2) to reduce the formation of granulation tissue in the inflammatory focus which develops at the site at which a non-sterile cotton-wool roll weighing 40 mg is implanted subcutaneously (Swingle and Shideman, 1972). Compound (2) was administered orally to male rats weighing 130-150 g at a dose of 100 mg/kg for 6 days before the cotton-wool roll was implanted, and then for 6 days at the same dose while the granuloma developed. Anti-inflammatory agents, such as ibuprofen and butadione, were used for comparison, using the same procedure. There were 10 rats in each group.
After 12 days the experiment was terminated, and the granulomas were excised, weighed, and the wet weight of the granulation tissue was measured. The dry mass of the granuloma was measured after drying for 24 hours at 70° C., and the exudative and proliferative stages of the granulomas were calculated. Statistical analysis was performed using the Student's parametric test.

[6] = tested on: gastric secretory function; assay: Gastric secretory function, chronic or acute tests; assay type: in vivo; details: dogs or rats
[7] = tested on: lesions of the gastric mucosa; assay: Gastric lesions induced by immobilization and hypothermia; assay type: in vivo, rats; parameters: % reduction of degree of ulceration / % reduction of ulcerated area: concentration or dose not given beside the values; details: Protective effect, 30 minutes before the test
Description: (§1) The models used gastric ulcers induced by
b) Immobilization and hypothermia (induced by water cooling);
(§2) The compounds were administered intraperitoneally at a dose of 20 mg/kg; in the cryogenic ulcer model compound 2 was administered either intraperitoneally (10 mg/kg) or orally (20 mg/kg twice daily, ie. a total of 40 mg/kg/day) and was compared to orally-administered gastrocepin (1 mg/kg twice daily, ie. a total of 2 mg/kg/day).

[8] = tested on: cryogenic ulcer of the gastric mucosa; assay: Cryogenic gastric ulcer in rats; assay type: in vivo; details: healing effect over the course of 14 days; twice daily, oral
Description: as §1
c) Ulcer created by local wounding with a cryogenic probe using a method similar to that described above for mouth ulcers.
as §2

[9] = tested on: lesions of the gastric mucosa; assay: Gastric lesions induced by electrostimulation of immobilised rats; assay type: in vivo
Description: as §1
a) Electrostimulation of immobilised rats for 3 hours;
as §2

[10] = tested on: cryogenic injuries of the sigmoid colon; assay: Cryogenic damage of the colon, model of ulcerative colitis; assay type: in vivo, rats; details: oral
Description: A model of cryogenic damage of the colon was used in this experiment to simulate ulcerative colitis. Cryogenic injuries of the sigmoid colon of rats were induced by pressing a metal rod of […] in diameter cooled in liquid nitrogen to the serous membrane of the colon for 10 seconds under ether anaesthesia.
Tests were performed on 67 male rats weighing 180-200 g, with 8 animals in each group. Animals were kept in separate cages, with normal food and water ad libitum. The test compounds were administered orally on the second day after the operation, and then daily until healing was complete. Compound 2 or Compound 6 was administered to test animals at a dose of 20-50 mg/kg. The following agents were used for comparison:
The nature of the healing of the ulcer injury was examined morphologically on days 1, 3 and 7. […] The inflammatory process extends beyond the injured area into the adjacent areas, and beyond the peritoneum into fatty connective tissue.

[11] = 10 mg/kg intra-peritoneally one hour before Con A
[12] = 50 mg/kg intra-peritoneally one hour before Con A
[13] = Adrenalectomized animals, 48 mg/kg orally 4 days + carrageenin
[14] = Healing effect over the course of 3 days
[15] = Protective effect, 30 minutes before the test

Description for white male mice: as §3

## CC[n+]1cn(C)c(C(=O)NC)c1C(=O)NC [Compound 4, 1-methyl-3-ethyl-4,5-bis(N-methylcarbamoyl)-imidazolium chloride]
[1]; [11]
  Reaction index (%): 14.1 ± 2.0%
[1]; [12]
  Reaction index (%): 12.4 ± 0.4 %
[2]; rat, in vivo
  histological findings in the liver: showed no undesirable effects
White male mice
  toxicity: very low toxicity
In vivo
  LD50 at 14 days: 1220 mg/kg
[3]
  Catalase E activity: 18.0 ± 2.6 μgM/min/g tissue × 1000
  DNA content (in mg/g of tissue): 3.72 ± 0.09 mg/g of tissue
  Protein content: 85.5 ± 10.6 Mg/g tissue
  RNA content (mg/g of tissue): 7.14 ± 0.2 mg/g of tissue
  SOD activity: 90.0 ± 3.3 Units/g tissue
  Level of recovery: 128.3

## CC(C)Cc1ccc(C(C)C(=O)O)cc1 (stereo not drawn) [Ibuprofen, ibuprofen]
[4]
  ED50 values from the literature: 48 mg/kg
[5]; 48 mg/kg 4 days + carrageenin
  Inhibition of oedema(%): 63.39%
  Reaction index (%): 15.88 ± 1.88 %
[5]; [13]
  Inhibition of oedema(%): 57.90%
  Reaction index (%): 18.12 ± 1.82 %
Experimental granuloma; 48 mg/kg
  Granuloma weight (mg) Dry weight: 143.2 ± 9.83 mg
  Granuloma weight (mg) Exudative stage: 670.8 mg
  Granuloma weight (mg) Fresh weight: 814.0 ± 63.72 mg
  Granuloma weight (mg) Proliferative stages: 103.2 mg

## 1,3-diethyl-4,5-bis(N-methylcarbamoyl)-imidazolium benzenesulfonate [Compound 3]
[6]
  effect on gastric secretory function: did not affect gastric secretory function
[1]; [11]
  Reaction index (%): 9.5 ± 2.5 %
[1]; [12]
  Reaction index (%): 9.5 ± 2.0 %
[7]
  % reduction of degree of ulceration: 41%
  % reduction of ulcerated area: 41%
  Area of lesion: 7.2 ± 2.0
[7]; 20 mg/kg intraperitoneally
  Average number of lesions per animal: 6.8 ± 1.4
White male mice
  LD50: over 500 mg/kg
  toxicity: very low toxicity
White male mice; intraperitoneal injection, white male mice, 14 days observation
  LD50: 1292 mg/kg
[8]
  % reduction of degree of ulceration: 59%
  Average number of lesions per animal: 7.7 ± 2.5
[9]; [14]
  % reduction of degree of ulceration: 26.5%
  Average number of lesions per animal: 2.5 ± 0.4
[9]; [15]
  % reduction of degree of ulceration: 50%
  % reduction of ulcerated area: 54%
  Area of lesion: 7.1 ± 4.1
[9]; Protective effect, 30 minutes before the test, 20 mg/kg intraperitoneally
  Average number of lesions per animal: 3.5 ± 0.4

## 1-methyl-3-ethyl-4,5-bis(N-methylcarbamoyl)-imidazolium salicylate [Compound 6]
[2]; 0.2 MM/kg, one week after hepatectomy
  histological findings in the liver: showed no undesirable effects
[10]
  indicators of healing relative to Compound 2: less pronounced
[3]
  Catalase E activity: 20.0 ± 2.7 μgM/min/g tissue × 1000
  DNA content (in mg/g of tissue): 3.88 ± 0.17 mg/g of tissue
  Protein content: 93.0 ± 14.0 Mg/g tissue
  RNA content (mg/g of tissue): 7.41 ± 0.16 mg/g of tissue
  SOD activity: 100.0 ± 4.7 Units/g tissue
  Level of recovery: 105.0

## CCCCC1C(=O)N(c2ccccc2)N(c2ccccc2)C1=O [Butadione]
[4]
  ED50 values from the literature: 60 mg/kg
Experimental granuloma; 60 mg/kg
  Granuloma weight (mg) Dry weight: 145.4 ± 7.45 mg
  Granuloma weight (mg) Exudative stage: 682.6 mg
  Granuloma weight (mg) Fresh weight: 828.0 ± 76.68 mg
  Granuloma weight (mg) Proliferative stages: 105.4 mg
